Test results published in publication PMC7869707 (European Journal of Medicinal Chemistry, 2021).

Tested on: wild-type SARS-CoV-2 (wuhan-HU-1 variant)
Type: cell-based

Compound: C[C@@H]1O[C@@H](O[C@H]2[C@H](O[C@H]3CC[C@]4(C)[C@H]5CC=C6[C@@H]7CC(C)(C)CC[C@]7(C(=O)NCc7ccccc7)CC[C@@]6(C)[C@]5(C)CC[C@H]4C3(C)C)O[C@H](CO)[C@@H](O[C@@H]3O[C@@H](C)[C@H](O)[C@@H](O)[C@H]3O)[C@@H]2O)[C@H](O)[C@H](O)[C@H]1O [Compound 12f, N-{3β-O-[2,4-di-O-(a-L-rhamnopyranosyl)-β-D-glucopyranosyl]-olean-12-en-28-oyl}-benzylamine]
- Inhibition of SARS-CoV-2 infection by IFA, NP expression: dose-dependent manner
